Values joined by “and” are separate entries in the source; they are usually repeats but may differ in a detail not shown here. Equal entries are not always repeated.
Legend:
in vivo = settings: wild-type, zebrafish (Danio rerio), in vivo
Description: (§1) The Zebrafish (Danio rerio) has been established as a modern experimental vertebrate model for assessing the toxicity of diverse synthetic and natural small molecules (SMs). […] Thus, these previously reported methodologies were adapted in our laboratory with slight modifications for the toxicological assessment of the selected pyridophenanthridin-6-one 4f and its corresponding precursors 6f–8f (Table 2).
(§2) Wild-type adult zebrafish of both sexes were separated in two tanks (30 L each), according to their gender, at 26 ± 2 °C under natural light-dark photoperiods. Fishes were fed twice daily, and the water quality was recorded weekly, in order to acclimate the fishes for at least two weeks before experiments begin. For the reproduction of the adult fishes, small breeding tanks were set up in the evening previous to the experiment, each containing three males and one female specimen. The tanks were isolated until the next morning when the lights switched on and the natural mating occurred, without any perturbation.
(§3) The adult fishes were returned to their corresponding tank and the embryos were collected, pooled, and washed with E3 medium and transferred into a 92 mm glass Petri dish. Further, the dead, delayed, malformed, and unfertilized embryos were identified under a dissecting microscope and removed by select aspiration with a pipette. This last procedure was repeated at 12 and 20 hpf in order to remove the unfit embryos. Throughout this period of time, the embryos were kept at 28 ± 2 °C in an incubator under natural light–dark photoperiods. The selected embryos of 24 hpf from the Petri dish were gently distributed into 96-well plates, placing a single embryo and 200 μL of E3 medium per well.
(§4) For this experiment, in total 72 embryos were required per sample in order to run three independent experiments in three different plates, and each compound was evaluated three times in the same plate, allowing the evaluation of four samples per plate. […] Each embryo was examined under a dissecting microscope and the statistical analysis was made using Regression Probit analysis with SPSS for windows version 19.0. Data are expressed as the standard error of the mean (SEM) of three different experiments in triplicate.

zebrafish embryos = assay: in vivo; settings: toxicity scale class from zebrafish LC50 in mg/L
Description: as §1, §2, §3, §4

[1] = LC50, zebrafish embryos, Figure 5 toxicity scale
[2] = Zebrafish LC50, zebrafish embryos, 96 hpf, 72 h exposure, mean ± SEM

Q: For CCc1cc2c3c(c1)C(c1ccccc1)CC(=O)N3Cc1ccccc1-2 (stereo not shown) [4f], which LC50 (in vivo; [1]) is on record?
A: 67.8 µM

Q: What about the LC50 (in vivo; [2]) of the same compound?
A: 67.8 µM and 60.2 µg/mL

Q: And the “Aquatic Animal Acute Toxicity” value (zebrafish embryos)?
A: ST (slightly toxic 10–100 (ST))

Q: For CCc1ccc2c(c1)C(c1ccccc1)CC(=O)N2Cc1ccccc1Br (stereo not shown) [6f], which LC50 (in vivo; [2]) is on record?
A: 151 µM and 86.5 µg/mL

Q: What about the “Aquatic Animal Acute Toxicity” value (zebrafish embryos) of the same compound?
A: ST (slightly toxic 10–100 (ST))

Q: For CCc1ccc(N(Cc2ccccc2Br)C(=O)/C=C/c2ccccc2)cc1 [7f], which LC50 (in vivo; [1]) is on record?
A: 137 µM

Q: And the LC50 (in vivo; [2])?
A: 137 µM and 51.2 µg/mL

Q: What about the “Aquatic Animal Acute Toxicity” value (zebrafish embryos) of the same compound?
A: ST (slightly toxic 10–100 (ST))

Q: Which LC50 (in vivo; [2]) does the source give for CCc1ccc(NC(=O)/C=C/c2ccccc2)cc1 [8f] here?
A: 221 µM and 43.9 µg/mL

Q: What about the “Aquatic Animal Acute Toxicity” value (zebrafish embryos) of the same compound?
A: ST (slightly toxic 10–100 (ST))

Q: Which LC50 (in vivo; [1]) does the source give for COc1ccc(O)cc1C(C)(C)C [BHA 18, butylated hydroxyanisole] here?
A: 90.2 µM

Q: What about the LC50 (in vivo; [2]) of the same compound?
A: 90.2 ± 1.15 µM

Q: What about the “Aquatic Animal Acute Toxicity” value (zebrafish embryos) of the same compound?
A: ST (slightly toxic 10–100 (ST))

Q: What does the source list for CC[C@@]1(O)C(=O)OCc2c1cc1n(c2=O)Cc2cc3ccccc3nc2-1 [Camptothecin 13, camptothecin]?
A: LC50 at 72 h (in vivo; [1]): 0.0038 µM; LC50 at 72 h (in vivo; Zebrafish LC50, zebrafish embryos, 96 hpf, 72 h exposure, mean ± SEM, footnote c): 0.00384 ± 0.00021 µM; Aquatic Animal Acute Toxicity (zebrafish embryos): T (super toxic 0–0.1 (T))

Q: For C=CCc1ccc(O)c(OC)c1 [Eugenol 19, eugenol], which LC50 (in vivo; [1]) is on record?
A: 114 µM

Q: What about the LC50 (in vivo; [2]) of the same compound?
A: 114 µM and 18.7 µg/mL

Q: And the “Aquatic Animal Acute Toxicity” value (zebrafish embryos)?
A: ST (slightly toxic 10–100 (ST))

Q: What does the source list for CC(C)Cn1cnc2c(N)nc3ccccc3c21 [Imiquimod 14, imiquimod]?
A: LC50 at 72 h (in vivo; [1]): 351 µM; LC50 at 72 h (in vivo; [2]): 351 µM and 84.3 µg/mL; Aquatic Animal Acute Toxicity (zebrafish embryos): ST (slightly toxic 10–100 (ST))

Q: For CCCCCCCCCCC[C@@H](C[C@@H]1OC(=O)[C@H]1CCCCCC)OC(=O)[C@H](CC(C)C)NC=O [Orlistat 15, orlistat], which LC50 (in vivo; [1]) is on record?
A: 86 µM

Q: What about the LC50 (in vivo; [2]) of the same compound?
A: 87 µM and 43.1 µg/mL

Q: And the “Aquatic Animal Acute Toxicity” value (zebrafish embryos)?
A: ST (slightly toxic 10–100 (ST))

Reference: publication PMC9741109, “Synthesis, In Silico and In Vivo Toxicity Assessment of Functionalized Pyridophenanthridinones via Sequential MW-Assisted Intramolecular Friedel-Crafts Alkylation and Direct C–H Arylation” (Molecules, 2022)
